What was measured:
[1] = tested on: HGADFN167 Lmna^G608G/G608G fibroblasts; assay: Immunoblot and immunocytofluorescence analysis in human progeroid cells (Ki‐67, nuclei, pH2AX, H3K9Me3); type: cell-based; details: HGADFN167, 5 µM, 20 days
Text: FIGURE 6 (A) Representative cropped immunoblots and progerin quantification in human Lmna^G608G/G608G fibroblasts. MW, molecular weight (in kDa) markers. […] (B) PROTAC 2 increases cell proliferation (upper panels) and decreases the number of misshapen nuclei (lower panels). White arrows highlight selected misshapen nuclei. (C) PROTAC 2 decreases senescence‐associated β‐galactosidase (SA‐βgal) activity, interleukin (IL) 6, p16 and p21 senescent markers. Bar graphs show mean±sem of 2 (SA‐βgal and p21) or 3 (IL‐6 and p16) independent experiments performed in triplicate. (D) PROTAC 2 decreases phosphorylated histone 2AX (pH2AX) and increases trimethylated histone 3 (H3K9Me3) levels. (E) PROTAC 2 increases the oxygen consumption rate (OCR), ATP production and the number of healthy mitochondria in human progeroid cells. Bar graphs show mean±sem of 2 independent experiments performed in duplicate. In all cases, HGADFN167 Lmna^G608G/G608G (G608G) or HGFDFN168 Lmna^+/+ (WT) fibroblasts, provided by the Progeria Research Foundation, were incubated with vehicle or 2 (5 µM) for 20 days. Data were analysed using one‐way ANOVA followed by Dunnett's post–hoc test vs vehicle (panel A) or vs G608G cells (panels B‐E). ^*, p < 0.05; ^**, p < 0.01; ^***, p < 0.001; ^****, p < 0.0001. Microscopy images are representative of 2 independent experiments and corresponding bar graphs show mean±sem of 4 fields from 2 independent experiments. […]
compound exposure. Then, cells were incubated with compound of interest or DMSO for the appropriate time and lysed with cold laemmli buffer (50 mM Tris-HCl pH 7.4, 150 mM NaCl, 1% Igepal) with a mixture of protease and phosphatase inhibitors (1 mM PMSF, 10 mM NaF, 0.3 mg/mL CalyculinA, 1 mM sodium orthovanadate, 10 mM β-glycerol-phosphate; all from Sigma-Aldrich and complete protease inhibitor cocktail, from Roche). Proteins were denatured at 95 ᵒC for 5 min and the lysates were immediately used or stored at -20 ᵒC until use. Samples were analysed by electrophoresis in polyacrylamide gels (All Kd SDS-PAGE, BioRad) and the proteins transferred to nitrocellulose membranes (GE Healthcare, Amersham). After 1 h of incubation in blocking buffer [20 mM Tris pH 7.6, 150 mM NaCl and 0.1% Tween-20 (TBS-T) with 5% of bovine serum albumin (BSA)], blots were incubated overnight at 4 ᵒC with the corresponding primary antibody: anti-phospho-histone 2AX (Ser139) (EMD Millipore, […]
GAPDH (Cell Signaling, 2118S, 1:5000) and anti-actin (Santa Cruz Biotechnology, sc-376248, 1:500) as antibodies for loading control. Then, membranes were washed (3x10 min) with TBS-T and incubated with the corresponding secondary antibody conjugated with peroxidase (Sigma- Aldrich) for 1 h at rt. […] The bands were quantified by densitometry using the […]

Lmna^G609G/G609G mice = assay: In vivo treatment of progeroid Lmna^G609G/G609G mice; design: species or system mouse
Protocol: Weight was monitored during this time and at the end of the period mice were sacrificed and tissue was harvested to determine if PROTAC administration induced a decrease in the levels of progerin in vivo.
UHPLC with an oven temperature of 31.5 °C. The mass spectrometer ion optics were set in the multiple reaction monitoring mode and the transition selected for quantification […]
For in vivo treatment, compound 2 was administrated at a concentration of 25 mg/kg diluted in sterile corn oil (Sigma-Aldrich) intraperitoneally three times per week starting at the age of 6 weeks. The same quantity of corn oil was injected to control […]
LmnaG609G/G609G and Lmna+/+ mice. […]
stress in mice. The weight of each mouse was registered 2 to 3 times per week during the duration of the treatment.
After 7 weeks of treatment, mice were euthanized by CO2 inhalation. Immediately after sacrifice, tissues were harvested, frozen in dry ice, and kept at -80 °C until use. For immunoblot analysis, a portion of the corresponding tissue was homogenized, and the protein concentration was determined. Samples containing equivalent amounts of total protein were then subjected to polyacrylamide gel electrophoresis and analyzed as […]

## CC1(C)Oc2cc3oc(=O)ccc3cc2C[C@@H]1OC(=O)CCCCCNc1cccc2c1C(=O)N(C1CCC(=O)NC1=O)C2=O (some centres unmarked) [compound 2]
[1]
  H3K9Me3 levels: significantly increased H3K9Me3 levels
  cell proliferation (Ki‐67 expression): enhances cell proliferation
  number of misshapen nuclei: significantly reduced the number of misshapen nuclei
  pH2AX levels: reduced pH2AX levels to those observed in WT cells
Lmna^G609G/G609G mice; 25 mg/kg i.p. in corn oil three times per week
  apparent damage or stress in mice: did not produce any apparent damage or stress in mice
Lmna^G609G/G609G mice; Lmna^G609G/G609G mice, 25 mg/kg i.p. three times per week, seven weeks
  body weight: trend toward improved body weight
Lmna^G609G/G609G mice; liver, Lmna^G609G/G609G mice, 25 mg/kg i.p. three times per week, 7 weeks
  H3K9Me3 levels in vivo: increased levels of H3K9Me3
Lmna^G609G/G609G mice; lung, Lmna^G609G/G609G mice, 25 mg/kg i.p. three times per week, 7 weeks
  progerin levels in vivo: reduced levels of progerin

Reference: publication PMC13252604, “First Generation Proteolysis Targeting Chimeras (PROTACs) for the Treatment of Progeria” (Advanced Science, 2026)
